{"source": "patent US20090227648A1", "about": "“PYRAZOLE DERIVATIVES USEFUL FOR THE TREATMENT OF CANCER” (AstraZeneca AB, priority 2004, published 2009)"}
{"biological_target": "T1, human Trk A kinase (Homo sapiens, UniProt P04629)", "T1 construct": "HIS; made in house; host or cells: SF9 insect cells", "T1 sequence (P04629 442-796)": "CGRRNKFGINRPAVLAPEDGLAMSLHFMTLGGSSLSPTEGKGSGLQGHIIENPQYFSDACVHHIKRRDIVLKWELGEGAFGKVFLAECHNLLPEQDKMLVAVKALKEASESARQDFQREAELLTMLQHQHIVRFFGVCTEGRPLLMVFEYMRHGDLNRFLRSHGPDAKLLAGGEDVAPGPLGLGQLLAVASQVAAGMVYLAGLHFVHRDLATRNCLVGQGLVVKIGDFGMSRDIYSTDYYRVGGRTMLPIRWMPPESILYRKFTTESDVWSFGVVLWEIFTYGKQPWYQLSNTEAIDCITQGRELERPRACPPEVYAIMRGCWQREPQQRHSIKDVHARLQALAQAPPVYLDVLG", "test": "Trk A kinase Alphascreen assay", "assay_type": "biochemical", "details": "intracellular domain of HIS-tagged human Trk A (aa 442-796), 70 μM ATP, 20 minutes, room temperature; read-out: Trk A inhibitory activity IC50", "method": "Trk A kinase activity was measured for its ability to phosphorylate synthetic tyrosine residues within a generic polypeptide substrate using an Amplified Luminescent Proximity Assay (Alphascreen) technology (PerkinEilmer, 549 Albany Street, Boston, Mass.).\nTo measure Trk A kinase activity, the intracellular domain of a HIS-tagged human Trk A kinase (amino acids 442-796 of Trk A, Swiss-Prot Primary Accession Number P04629) was expressed in SF9 cells and purified using standard nickel column chromatography. After incubation of the kinase with a biotinylated substrate and adenosine triphosphate (ATP) for 20 minutes at room temperature, the kinase reaction was stopped by the addition of 30 mM ethylenediaminetetraacetic acid (EDTA). The reaction was performed in 384 well microtitre plates and the reaction products were detected with the addition of strepavidin coated Donor Beads and phosphotyrosine-specific antibodies coated Acceptor Beads using the EnVision Multilabel Plate Reader after an overnight incubation at room temperature.", "units": {"IC50": "nM"}}
{"compound": "N#Cc1cc([N+](=O)[O-])c(Nc2cc(C3CC3)[nH]n2)cc1N[C@@H](CO)c1ccc(F)cc1", "note": "[Example 10, (R)-4-(5-Cyclopropyl-1H-pyrazol-3-ylamino)-2-(1-(4-fluorophenyl)-2-hydroxyethylamino)-5-nitrobenzonitrile]", "IC50": 859}
{"compound": "C[C@H](Nc1cc(Nc2cc(C3CC3)[nH]n2)c([N+](=O)[O-])cc1F)c1ccc(F)cc1", "note": "[Example 13, (S)—N^1-(5-Cyclopropyl-1H-pyrazol-3-yl)-4-fluoro-N^3-(1-(4-fluorophenyl)ethyl)-6-nitrobenzene-1,3-diamine]", "IC50": 426}
{"compound": "C[C@H](Nc1cc(NCCO)c([N+](=O)[O-])c(Nc2cc(C3CC3)[nH]n2)c1)c1ccc(F)cc1", "note": "[Example 17, (S)-2-(3-(5-Cyclopropyl-1H-pyrazol-3-ylamino)-5-(1-(4-fluorophenyl)ethylamino)-2-nitrophenylamino)ethanol]", "IC50": 1240}
